Test results published in PubChem BioAssay AID624003 (Vanderbilt Specialized Chemistry Center, 2012).
pIC50: −log10 of the molar value.

Molecular target: Phospholipase D1 (Homo sapiens) + Phospholipase D1 (Homo sapiens) (UniProt Q13393+Q13393)
Experiment: PLD1 inhibition potency in cells, dose response, cell-based, Lib32, assay 2A (AID 624003)
Settings: cellular PLD1 activity assay

Chain of Phospholipase D1 (Homo sapiens) + Phospholipase D1 (Homo sapiens) (Q13393 whole entry, looked up): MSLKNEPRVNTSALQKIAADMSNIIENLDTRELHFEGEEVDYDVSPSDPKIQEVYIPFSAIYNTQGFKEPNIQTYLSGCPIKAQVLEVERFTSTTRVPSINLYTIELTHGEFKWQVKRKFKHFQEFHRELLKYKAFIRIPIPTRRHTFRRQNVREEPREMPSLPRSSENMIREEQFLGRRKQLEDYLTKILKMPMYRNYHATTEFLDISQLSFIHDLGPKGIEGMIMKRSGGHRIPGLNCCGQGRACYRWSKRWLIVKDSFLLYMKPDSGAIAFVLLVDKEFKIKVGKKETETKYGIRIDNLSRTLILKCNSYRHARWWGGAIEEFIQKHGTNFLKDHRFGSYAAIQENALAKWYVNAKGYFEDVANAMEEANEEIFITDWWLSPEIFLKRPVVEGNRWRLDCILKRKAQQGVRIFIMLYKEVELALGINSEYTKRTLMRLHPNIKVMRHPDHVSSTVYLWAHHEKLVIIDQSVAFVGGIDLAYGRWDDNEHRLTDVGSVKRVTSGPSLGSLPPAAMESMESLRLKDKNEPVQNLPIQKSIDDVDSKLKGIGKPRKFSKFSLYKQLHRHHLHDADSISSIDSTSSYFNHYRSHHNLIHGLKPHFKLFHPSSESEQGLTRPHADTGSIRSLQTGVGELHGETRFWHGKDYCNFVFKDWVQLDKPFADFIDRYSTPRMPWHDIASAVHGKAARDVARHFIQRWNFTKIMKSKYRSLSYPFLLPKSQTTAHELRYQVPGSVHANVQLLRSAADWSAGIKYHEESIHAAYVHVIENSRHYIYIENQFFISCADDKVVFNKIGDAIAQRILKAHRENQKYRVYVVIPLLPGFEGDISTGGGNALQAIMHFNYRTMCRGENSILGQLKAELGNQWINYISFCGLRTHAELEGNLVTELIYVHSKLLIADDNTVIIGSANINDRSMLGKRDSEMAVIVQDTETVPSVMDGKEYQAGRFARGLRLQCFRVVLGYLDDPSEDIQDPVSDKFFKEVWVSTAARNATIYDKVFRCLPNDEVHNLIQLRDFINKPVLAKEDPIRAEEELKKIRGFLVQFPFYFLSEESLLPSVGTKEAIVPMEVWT
Chain of Phospholipase D1 (Homo sapiens) + Phospholipase D1 (Homo sapiens) (Q13393 whole entry, looked up): as above

SMILES	pIC50
C[C@@H](CN1CCC2(CC1)C(=O)NCN2c1cccc(F)c1)NC(=O)c1ccc(F)c(F)c1	7.07
COc1cc(C(=O)N[C@@H](C)CN2CCC3(CC2)C(=O)NCN3c2cccc(F)c2)cc(OC)c1OC	7.66
COc1cc(C(=O)NCCN2CCC3(CC2)C(=O)NCN3c2cccc(F)c2)cc(OC)c1OC	5.36
C[C@@H](CN1CCC2(CC1)C(=O)NCN2c1cccc(F)c1)NC(=O)c1cccc([N+](=O)[O-])c1	6.91
C[C@@H](CN1CCC2(CC1)C(=O)NCN2c1cccc(F)c1)NC(=O)c1ccc(F)cc1F	6.87
O=C(NCCN1CCC2(CC1)C(=O)NCN2c1cccc(F)c1)c1ccc(Br)cc1	5.81
C[C@@H](CN1CCC2(CC1)C(=O)NCN2c1cccc(F)c1)NC(=O)c1ccc(F)cc1	7.70
C[C@@H](CN1CCC2(CC1)C(=O)NCN2c1cccc(F)c1)NC(=O)c1cccc(F)c1	7.14
